Our source for the EPSA values is patent US20260022143A1, “Cyclic Peptide Inhibitors of IL-23” (JANSSEN PHARMACEUTICA NV, priority 2022, published 2026).

Structures can show the parent of a compound that is named as a salt. Starred links: 1 amine or outer side, 2 acyl side, 3 side chain; linkers in the order of their positions; H or OH if unused. Positions of bridges follow the written chain, without caps; N, C: chain ends. Non-standard residues stand in square brackets, D forms with d. Residues, ends and D or L forms follow the SMILES beside them. *: point of attachment. X68 = COCCOCCOCCOCCOCCOCCC(=O)N(CCCC[C@@H](N[*:1])C(=O)[*:2])C(C)=O; Me3N+(CH2)2O(CH2)2O(CH2)2CO = C[N+](C)(C)CCOCCOCCC(=O)*; Trp(7-Me) = Cc1cccc2c(C[C@H](N)C(=O)O)c[nH]c12; Hexanoyl(6-NMe3+) = C[N+](C)(C)CCCCCC(=O)*; Lys(Me3) = C[N+](C)(C)CCCC[C@H](N)C(=O)O; X29 = O=C([C@H](CCn1ncnn1)N[*:1])[*:2]; 2Nal = N[C@@H](Cc1ccc2ccccc2c1)C(=O)O; AEF = NCCOc1ccc(C[C@H](N)C(=O)O)cc1; 3Pal = N[C@@H](Cc1cccnc1)C(=O)O; Lys(Me) = CNCCCC[C@H](N)C(=O)O; X7 = COCCOCCOCCOCCOCCOCCC(=O)*; Pen = CC(C)(S)[C@H](N)C(=O)O; Thp = NC1(C(=O)O)CCOCC1; Me2NCH2CH2 = CN(C)CC*; Tfa = O=C(C(F)(F)F)*; Sar = CNCC(=O)O

This series in a line: Exposed Polar Surface Area (EPSA). It counts as physicochemical. To be noted: SFC on Chirex 3014 column; sample 1 mM DMSO stock; read-out: EPSA. Put shortly:
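EPSA, in Å^2, is read from SFC retention time through a linear relationship established with eight calibration standards. Separation uses a Chirex 3014 stationary phase, 35 °C, 14 MPa back pressure, and a 5–60% methanol/ammonium formate modifier gradient in CO2.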
Take `CC(=O)NCCCC[C@@H]1NC(=O)[C@H](Cc2c[nH]c3c(C)cccc23)NC(=O)[C@H]([C@@H](C)O)NC(=O)[C@H](CC(N)=O)NC(=O)[C@@H](NC(=O)C(F)(F)F)C(C)(C)SSC(C)(C)[C@@H](C(=O)N[C@@H](Cc2ccc(OCCN)cc2)C(=O)N[C@@H](Cc2ccc3ccccc3c2)C(=O)NC2(C(=O)N[C@@H](CCn3ncnn3)C(=O)N[C@@H](CC(N)=O)C(=O)N[C@@H](Cc3cccnc3)C(=O)N(C)CC(N)=O)CCOCC2)NC1=O` [compound 77] (Tfa-[Pen]NT[Trp(7-Me)]K(Ac)[Pen][AEF][2Nal][Thp][X29]N[3Pal][Sar]-NH2; disulfide 1-6): the EPSA was 161 A^2.

Take `COCCOCCOCCOCCOCCOCCC(=O)N(CCCC[C@H]1NC(=O)[C@H](Cc2c[nH]c3c(C)cccc23)NC(=O)[C@H]([C@@H](C)O)NC(=O)[C@H](CC(N)=O)NC(=O)[C@@H](NC(C)=O)C(C)(C)SSC(C)(C)[C@@H](C(=O)N[C@@H](Cc2ccc(OCCN)cc2)C(=O)N[C@@H](Cc2ccc3ccccc3c2)C(=O)NC2(C(=O)N[C@@H](CCCCNC(C)=O)C(=O)N[C@@H](CC(N)=O)C(=O)N[C@@H](Cc3cccnc3)C(=O)N(C)CC(N)=O)CCOCC2)NC1=O)C(C)=O` [compound 78] (Ac-[Pen]NT[Trp(7-Me)][X68][Pen][AEF][2Nal][Thp]K(Ac)N[3Pal][Sar]-NH2; disulfide 1-6): the EPSA worked out at 157 A^2.

For `CC(=O)N(C)CCCC[C@@H]1NC(=O)[C@H](Cc2c[nH]c3c(C)cccc23)NC(=O)[C@H]([C@@H](C)O)NC(=O)[C@H](CC(=O)N(C)C)NC(=O)[C@@H](NC(=O)C(F)(F)F)C(C)(C)SSC(C)(C)[C@@H](C(=O)N[C@@H](Cc2ccc(OCCN(C)C)cc2)C(=O)N[C@@H](Cc2ccc3ccccc3c2)C(=O)NC2(C(=O)N[C@@H](CCC(=O)N(C)C)C(=O)N[C@@H](CC(N)=O)C(=O)N[C@@H](Cc3cccnc3)C(=O)N(C)CC(N)=O)CCOCC2)NC1=O` [compound 79, CF3CO-Pen(3)-N(N(Me)2)-T-7MeW-K(NMeAc)-Pen(3)-AEF(N(Me)2)-2Nal-THP-Q(N(Me)2)-N-3Pya-Sar-CONH2] (Tfa-[Pen]D(NMe2)T[Trp(7-Me)][Lys(Me)](Ac)[Pen]Y(Me2NCH2CH2)[2Nal][Thp]E(NMe2)N[3Pal][Sar]-NH2; disulfide 1-6 (inferred)), the EPSA was determined as 144 A^2.

For the compound `CC(=O)NCCCC[C@@H]1NC(=O)[C@H](Cc2c[nH]c3c(C)cccc23)NC(=O)[C@H]([C@@H](C)O)NC(=O)[C@H](CC(N)=O)NC(=O)[C@@H](NC(=O)CCCCC[N+](C)(C)C)C(C)(C)SSC(C)(C)[C@@H](C(=O)N[C@@H](Cc2ccc(OCCN)cc2)C(=O)N[C@@H](Cc2ccc3ccccc3c2)C(=O)NC2(C(=O)N[C@@H](CCC(=O)O)C(=O)N[C@@H](CC(N)=O)C(=O)N[C@@H](Cc3cccnc3)C(=O)N(C)CC(N)=O)CCOCC2)NC1=O` [compound 81] ({Hexanoyl(6-NMe3+)}-[Pen]NT[Trp(7-Me)]K(Ac)[Pen][AEF][2Nal][Thp]EN[3Pal][Sar]-NH2; disulfide 1-6 (inferred)), the EPSA amounted to 173 A^2.

As to `CC(=O)NCCCC[C@@H]1NC(=O)[C@H](Cc2c[nH]c3c(C)cccc23)NC(=O)[C@H]([C@@H](C)O)NC(=O)[C@H](CC(N)=O)NC(=O)[C@@H](NC(=O)[C@@H](CCCCNC(=O)CCCCC[N+](C)(C)C)NC(C)=O)C(C)(C)SSC(C)(C)[C@@H](C(=O)N[C@@H](Cc2ccc(OCCN)cc2)C(=O)N[C@@H](Cc2ccc3ccccc3c2)C(=O)NC2(C(=O)N[C@@H](CCC(=O)O)C(=O)N[C@@H](CC(N)=O)C(=O)N[C@@H](Cc3cccnc3)C(=O)N(C)CC(N)=O)CCOCC2)NC1=O` [compound 83] (Ac-[dK](Hexanoyl(6-NMe3+))[Pen]NT[Trp(7-Me)]K(Ac)[Pen][AEF][2Nal][Thp]EN[3Pal][Sar]-NH2; disulfide 2-7 (inferred)), the EPSA was 167 A^2.

Regarding `CC(=O)NCCCC[C@@H]1NC(=O)[C@H](Cc2c[nH]c3c(C)cccc23)NC(=O)[C@H]([C@@H](C)O)NC(=O)[C@H](CC(N)=O)NC(=O)[C@@H](NC(=O)[C@@H](CCCCNC(=O)CCOCCOCC[N+](C)(C)C)NC(C)=O)C(C)(C)SSC(C)(C)[C@@H](C(=O)N[C@@H](Cc2ccc(OCCN)cc2)C(=O)N[C@@H](Cc2ccc3ccccc3c2)C(=O)NC2(C(=O)N[C@@H](CCC(=O)O)C(=O)N[C@@H](CC(N)=O)C(=O)N[C@@H](Cc3cccnc3)C(=O)N(C)CC(N)=O)CCOCC2)NC1=O` [compound 84] (Ac-[dK](Me3N+(CH2)2O(CH2)2O(CH2)2CO)[Pen]NT[Trp(7-Me)]K(Ac)[Pen][AEF][2Nal][Thp]EN[3Pal][Sar]-NH2; disulfide 2-7), the EPSA was 166 A^2.

For `CC(=O)NCCCC[C@@H]1NC(=O)[C@H](Cc2c[nH]c3c(C)cccc23)NC(=O)[C@H]([C@@H](C)O)NC(=O)[C@H](CC(N)=O)NC(=O)[C@@H](NC(C)=O)C(C)(C)SSC(C)(C)[C@@H](C(=O)N[C@@H](Cc2ccc(OCCN)cc2)C(=O)N[C@@H](Cc2ccc3ccccc3c2)C(=O)NC2(C(=O)N[C@@H](CCCCNC(=O)CCCCC[N+](C)(C)C)C(=O)N[C@@H](CC(N)=O)C(=O)N[C@@H](Cc3cccnc3)C(=O)N(C)CC(N)=O)CCOCC2)NC1=O` [compound 85] (Ac-[Pen]NT[Trp(7-Me)]K(Ac)[Pen][AEF][2Nal][Thp]K(Hexanoyl(6-NMe3+))N[3Pal][Sar]-NH2; disulfide 1-6), the EPSA worked out at 151 A^2.

With `CC(=O)NCCCC[C@@H]1NC(=O)[C@H](Cc2c[nH]c3c(C)cccc23)NC(=O)[C@H]([C@@H](C)O)NC(=O)[C@H](CC(N)=O)NC(=O)[C@@H](NC(C)=O)C(C)(C)SSC(C)(C)[C@@H](C(=O)N[C@@H](Cc2ccc(OCCN)cc2)C(=O)N[C@@H](Cc2ccc3ccccc3c2)C(=O)NC2(C(=O)N[C@@H](CCCCNC(=O)CCOCCOCC[N+](C)(C)C)C(=O)N[C@@H](CC(N)=O)C(=O)N[C@@H](Cc3cccnc3)C(=O)N(C)CC(N)=O)CCOCC2)NC1=O` [compound 86] (Ac-[Pen]NT[Trp(7-Me)]K(Ac)[Pen][AEF][2Nal][Thp]K(Me3N+(CH2)2O(CH2)2O(CH2)2CO)N[3Pal][Sar]-NH2; disulfide 1-6), the EPSA turned out to be 150 A^2.

As to `CC(=O)NCCCC[C@@H]1NC(=O)[C@H](Cc2c[nH]c3c(C)cccc23)NC(=O)[C@H]([C@@H](C)O)NC(=O)[C@H](CC(N)=O)NC(=O)[C@@H](NC(=O)[C@@H](CCCCNC(=O)CCOCCOCC[N+](C)(C)C)NC(C)=O)C(C)(C)SSC(C)(C)[C@@H](C(=O)N[C@@H](Cc2ccc(OCCN)cc2)C(=O)N[C@@H](Cc2ccc3ccccc3c2)C(=O)NC2(C(=O)N[C@@H](CCCCNC(C)=O)C(=O)N[C@@H](CC(N)=O)C(=O)N[C@@H](Cc3cccnc3)C(=O)N(C)CC(N)=O)CCOCC2)NC1=O` [compound 88] (Ac-[dK](Me3N+(CH2)2O(CH2)2O(CH2)2CO)[Pen]NT[Trp(7-Me)]K(Ac)[Pen][AEF][2Nal][Thp]K(Ac)N[3Pal][Sar]-NH2; disulfide 2-7), the EPSA turned out to be 158 A^2.

For `CC(=O)NCCCC[C@@H]1NC(=O)[C@H](Cc2c[nH]c3c(C)cccc23)NC(=O)[C@H]([C@@H](C)O)NC(=O)[C@H](CC(N)=O)NC(=O)[C@@H](NC(=O)CCCCC[N+](C)(C)C)C(C)(C)SSC(C)(C)[C@@H](C(=O)N[C@@H](Cc2ccc(OCCN)cc2)C(=O)N[C@@H](Cc2ccc3ccccc3c2)C(=O)NC2(C(=O)N[C@@H](CCCCNC(C)=O)C(=O)N[C@@H](CC(N)=O)C(=O)N[C@@H](Cc3cccnc3)C(=O)N(C)CC(N)=O)CCOCC2)NC1=O` [compound 89] ({Hexanoyl(6-NMe3+)}-[Pen]NT[Trp(7-Me)]K(Ac)[Pen][AEF][2Nal][Thp]K(Ac)N[3Pal][Sar]-NH2; disulfide 1-6 (inferred)), the EPSA is 160 A^2.

With `Cc1cccc2c(C[C@@H]3NC(=O)[C@H]([C@@H](C)O)NC(=O)[C@H](CC(=O)N(C)C)NC(=O)[C@@H](NC(=O)CCCCC[N+](C)(C)C)C(C)(C)SSC(C)(C)[C@@H](C(=O)N[C@@H](Cc4ccc(OCCN(C)C)cc4)C(=O)N[C@@H](Cc4ccc5ccccc5c4)C(=O)NC4(C(=O)N[C@@H](CCC(=O)N(C)C)C(=O)N[C@@H](CC(N)=O)C(=O)N[C@@H](Cc5cccnc5)C(=O)N(C)CC(=O)N(C)C)CCOCC4)NC(=O)[C@H](CCC(=O)N(C)C)NC3=O)c[nH]c12` [compound 91, 5cpaCO-Pen(3)-N(N(Me)2)-T-7MeW-Q(N(Me)2)-Pen(3)-AEF(N(Me)2)-2Nal-THP-Q(N(Me)2)-N-3Pya-Sar-CON(Me)2] ({Hexanoyl(6-NMe3+)}-[Pen]D(NMe2)T[Trp(7-Me)]E(NMe2)[Pen]Y(Me2NCH2CH2)[2Nal][Thp]E(NMe2)N[3Pal][Sar]-NMe2; disulfide 1-6), the EPSA worked out at 145 A^2.

In the case of `COCCOCCOCCOCCOCCOCCC(=O)N(C)CCCC[C@H](NC(=O)C1(NC(=O)[C@H](Cc2ccc3ccccc3c2)NC(=O)[C@H](Cc2ccc(OCCN)cc2)NC(=O)[C@H]2NC(=O)[C@H](CCCCNC(C)=O)NC(=O)[C@H](Cc3c[nH]c4c(C)cccc34)NC(=O)[C@H]([C@@H](C)O)NC(=O)[C@H](CC(N)=O)NC(=O)[C@@H](NC(C)=O)C(C)(C)SSC2(C)C)CCOCC1)C(=O)N[C@@H](CC(N)=O)C(=O)N[C@@H](Cc1cccnc1)C(=O)N(C)CC(N)=O` [compound 92] (Ac-[Pen]NT[Trp(7-Me)]K(Ac)[Pen][AEF][2Nal][Thp][Lys(Me)](X7)N[3Pal][Sar]-NH2; disulfide 1-6), the EPSA is 151 A^2.

In the case of `CC(=O)N(C)CCCC[C@@H]1NC(=O)[C@H](Cc2c[nH]c3c(C)cccc23)NC(=O)[C@H]([C@@H](C)O)NC(=O)[C@H](CC(=O)N(C)C)NC(=O)[C@@H](NC(=O)[C@H](CCCC[N+](C)(C)C)NC(=O)C(F)(F)F)C(C)(C)SSC(C)(C)[C@@H](C(=O)N[C@@H](Cc2ccc(OCCN(C)C)cc2)C(=O)N[C@@H](Cc2ccc3ccccc3c2)C(=O)NC2(C(=O)N[C@@H](CCC(=O)O)C(=O)N[C@@H](CC(N)=O)C(=O)N[C@@H](Cc3cccnc3)C(=O)N(C)CC(=O)N(C)C)CCOCC2)NC1=O` [compound 93, CF3CO-K(Me)3-Pen(3)-N(N(Me)2)-T-7MeW-K(NMeAc)-Pen(3)-AEF(N(Me)2)-2Nal-THP-E-N-3Pya-Sar-CON(Me)2] (Tfa-[Lys(Me3)][Pen]D(NMe2)T[Trp(7-Me)][Lys(Me)](Ac)[Pen]Y(Me2NCH2CH2)[2Nal][Thp]EN[3Pal][Sar]-NMe2; disulfide 2-7), the EPSA was 151 A^2.
